This assay deals with T1, bovine serum albumin (BSA) (Bos taurus, UniProt P02769).
T1 construct: gene ALB
Kind of assay: UV-vis absorption titration of BSA at […] nm (double reciprocal plot). In kind it is binding. Particulars: read-out: UV-vis absorption titration of BSA at 280 nm (double reciprocal plot) (converted).

T1 sequence (P02769 25-607): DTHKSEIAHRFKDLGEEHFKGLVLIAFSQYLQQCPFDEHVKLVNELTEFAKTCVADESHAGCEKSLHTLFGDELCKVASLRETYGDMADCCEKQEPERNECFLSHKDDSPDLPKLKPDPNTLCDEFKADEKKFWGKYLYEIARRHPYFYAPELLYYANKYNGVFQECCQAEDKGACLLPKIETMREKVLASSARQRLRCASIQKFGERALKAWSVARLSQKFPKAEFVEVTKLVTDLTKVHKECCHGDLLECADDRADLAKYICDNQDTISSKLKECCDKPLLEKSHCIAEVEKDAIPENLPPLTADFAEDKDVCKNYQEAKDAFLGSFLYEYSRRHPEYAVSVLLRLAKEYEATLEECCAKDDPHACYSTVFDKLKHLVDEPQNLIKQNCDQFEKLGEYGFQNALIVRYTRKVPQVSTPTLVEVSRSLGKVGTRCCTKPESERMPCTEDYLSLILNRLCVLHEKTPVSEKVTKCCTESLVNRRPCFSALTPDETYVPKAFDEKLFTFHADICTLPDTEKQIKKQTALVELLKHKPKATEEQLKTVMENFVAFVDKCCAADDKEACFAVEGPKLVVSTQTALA

As to `O=C(NN=Cc1c[nH]c2ccccc12)c1ccncc1` [L1, N′-[(E)-3-Indol-3-ylmethylene] isonicotinohydrazide], the Kd is 261 µM.

The values above are taken from article PMC9878661, “Syntheses, Structural Characterization, and Cytotoxicity Assessment of Novel Mn(II) and Zn(II) Complexes of Aroyl-Hydrazone Schiff Base Ligand” (ACS Omega, 2023).
